# Data as given in ChEMBL document CHEMBL5331089, “Mucormycosis: A hidden mystery of fungal infection, possible diagnosis, treatment and development of new therapeutic agents” (Eur J Med Chem, 2023).
# How the values were obtained:
# [1] = system: Syncephalastrum racemosum; experiment: Antifungal activity against Syncephalastrum racemosum assessed as fungal growth inhibition measured for 24 to 24 hrs by agar well diffusion assay; type: functional, organism-based; conditions: for MIC: time 24-24 hrs
# [2] = system: Syncephalastrum racemosum; experiment: Antifungal activity against Syncephalastrum racemosum RCMB 016001 assessed as zone of inhibition measured after 24 hrs; type: functional
# Mucor circinelloides [3] = experiment: Antifungal activity against Mucor circinelloides assessed as fungal growth inhibition measured at 36 to 48 hrs; type: functional; conditions: time 36-48 hrs
# Rhizomucor pusillus [4] = experiment: Antifungal activity against Rhizomucor pusillus assessed as fungal growth inhibition measured at 36 to 48 hrs; type: functional; conditions: time 36-48 hrs
# Rhizopus delemar = experiment: Antifungal activity against Rhizopus delemar assessed as fungal growth inhibition; type: functional; conditions: read-out: MEC
# Rhizopus arrhizus [5] = experiment: Antifungal activity against Rhizopus oryzae assessed as fungal growth inhibition; type: functional; conditions: read-out: MEC
# Lichtheimia corymbifera [6] = experiment: Antifungal activity against Absidia corymbifera assessed as fungal growth inhibition; type: functional; conditions: read-out: MEC
# Mucor circinelloides [7] = experiment: Antifungal activity against Mucor circinelloides assessed as fungal growth inhibition; type: functional; conditions: read-out: MEC
# Mucor indicus = experiment: Antifungal activity against Mucor indicus assessed as fungal growth inhibition; type: functional; conditions: read-out: MEC
# Rhizomucor pusillus [8] = experiment: Antifungal activity against Rhizomucor pusillus clinical isolate assessed as fungal growth inhibition measured after 48 hrs by microtitre plate reader analysis; type: functional
# Rhizomucor pusillus [9] = experiment: Antifungal activity against Rhizomucor pusillus CN(M)231 assessed as fungal growth inhibition measured after 48 hrs by microtitre plate reader assay; type: functional
# Rhizopus arrhizus [10] = experiment: Antifungal activity against Rhizopus oryzae clinical isolate assessed as fungal growth inhibition by checkerboard broth microdilution assay; type: functional
# Rhizopus arrhizus [11] = experiment: Antifungal activity against Rhizopus oryzae clinical isolate assessed as fungal growth inhibition measured after 24 to 72 hrs by microtitre plate reader analysis; type: functional; conditions: time 24-72 hrs
# Rhizopus arrhizus [12] = experiment: Antifungal activity against Rhizopus oryzae CBS 109939 assessed as fungal growth inhibition by checkerboard broth microdilution assay; type: functional
# Rhizopus arrhizus [13] = experiment: Antifungal activity against Rhizopus oryzae clinical isolate RO-969 assessed as fungal growth inhibition measured after 24 hrs; type: functional
# Rhizopus arrhizus [14] = experiment: Antifungal activity against Rhizopus oryzae clinical isolate RO-275 assessed as fungal growth inhibition measured after 24 hrs; type: functional
# Rhizopus arrhizus [15] = experiment: Antifungal activity against Rhizopus oryzae clinical isolate RO-449 assessed as fungal growth inhibition measured after 24 hrs; type: functional
# Rhizopus stolonifer = experiment: Antifungal activity against Rhizopus stolonifer SZMC 11101 assessed as fungal growth inhibition measured after 24 hrs by microtitre plate reader assay; type: functional
# [16] = system: Syncephalastrum racemosum; experiment: Antifungal activity against Syncephalastrum racemosum SZMC 2011 assessed as fungal growth inhibition measured after 24 hrs by microtitre plate reader assay; type: functional
# Mycotypha africana = experiment: Antifungal activity against Mycotypha africana NRRL 2978 assessed as fungal growth inhibition measured after 24 hrs by microtitre plate reader assay; type: functional
# Mucor circinelloides [17] = experiment: Antifungal activity against Mucor circinelloides MS 12 assessed as fungal growth inhibition measured after 48 hrs by plate reader assay; type: functional
# Rhizopus arrhizus [18] = experiment: Antifungal activity against Rhizopus arrhizus assessed as fungal growth inhibition; type: functional
# Absidia = experiment: Antifungal activity against Absidia assessed as fungal growth inhibition measured upto 48 hrs by spectrophotometric analysis; type: functional
# Rhizomucor miehei = experiment: Antifungal activity against Rhizomucor miehei CBS 360.92 assessed as fungal growth inhibition measured after 48 hrs by microtitre plate reader assay; type: functional
# Lichtheimia corymbifera [19] = experiment: Antifungal activity against Absidia corymbifera SZMC 2010 assessed as fungal growth inhibition measured after 48 hrs by microtitre plate reader assay; type: functional
# Mucorales = experiment: Antifungal activity against Mucorales assessed as fungal growth inhibition measured 24 to 48 hrs; type: functional; conditions: time 24-48 hrs
# Rhizopus arrhizus [20] = experiment: Antifungal activity against Rhizopus oryzae CBS 112.07 assessed as fungal growth inhibition measured after 48 hrs by microtitre plate reader assay; type: functional
# Rhizopus arrhizus [21] = experiment: Antifungal activity against Rhizopus oryzae assessed as fungal growth inhibition at 12.5 ug/ml measured after 24 hrs by microtiter plate assay relative to control; type: functional
# Mucor circinelloides [22] = experiment: Antifungal activity against Mucor circinelloides assessed as fungal growth inhibition at 100 ug/ml measured after 24 hrs by microtiter plate assay relative to control; type: functional
# Phycomyces blakesleeanus = experiment: Antifungal activity against Phycomyces blakesleeanus assessed as fungal growth inhibition at 6.26 ug/ml measured after 24 hrs by microtiter plate assay relative to control; type: functional
# [23] = Antifungal activity against Rhizopus microsporus var. oligosporus NRRL 514 assessed as fungal growth inhibition measured after 48 hrs by microtitre plate reader assay; type: functional
smiles,measurement,setting,value
CCOC(=O)N1C/C(=C\c2ccc(OC)cc2)C(=O)[C@@]2(C1)[C@H](c1ccc(OC)cc1)[C@H]1CCCN1[C@]21C(=O)Nc2ccccc21,IC50,[1],11.3 µg/mL
same,MIC,[1],0.98 µg/mL
CCOC(=O)N1C/C(=C\c2ccc(Cl)cc2)C(=O)[C@@]2(C1)[C@H](c1ccc(Cl)cc1)CN(C)[C@]21C(=O)Nc2ccccc21,inhibition zone (IZ),[2],39.46 mm
same,IC50,[1],16.4 µg/mL
same,MIC,[1],1.95 µg/mL
CCOC(=O)N1C/C(=C\c2ccc([N+](=O)[O-])cc2)C(=O)[C@@]2(C1)[C@H](c1ccc([N+](=O)[O-])cc1)[C@H]1CCCN1[C@]21C(=O)Nc2ccccc21,inhibition zone (IZ),[2],39.46 mm
same,IC50,[1],10.6 µg/mL
same,MIC,[1],0.49 µg/mL
CCOC(=O)N1C/C(=C\c2ccc(F)c(F)c2)C(=O)[C@@]2(C1)[C@H](c1ccc(F)c(F)c1)[C@H]1CCCN1[C@]21C(=O)Nc2ccccc21,IC50,[1],11.3 µg/mL
same,MIC,[1],1.95 µg/mL
CCOC(=O)N1C/C(=C\c2cc(OC)c(OC)c(OC)c2)C(=O)[C@@]2(C1)[C@H](c1cc(OC)c(OC)c(OC)c1)[C@H]1CCCN1[C@]21C(=O)Nc2ccccc21,inhibition zone (IZ),[2],39.46 mm
Cc1ccc([C@H]2[C@@]3(SC(=O)NC3=O)C3CCCN3[C@@]23C(=O)Nc2ccccc23)cc1 (stereo not given in full),inhibition zone (IZ),[2],19 mm
CCOC(=O)N1C/C(=C\c2cc(OC)c(OC)c(OC)c2)C(=O)[C@@]2(C1)[C@H](c1cc(OC)c(OC)c(OC)c1)CN(C)[C@]21C(=O)Nc2ccccc21,inhibition zone (IZ),[2],39.46 mm
O=C1NC(=O)[C@]2(S1)C1CCCN1[C@@]1(C(=O)Nc3ccccc31)[C@H]2c1ccccc1 (stereo not given in full),inhibition zone (IZ),[2],14 mm
Cc1cc(N2CCN(c3ccc(C(=O)N[C@H]4CCCC[C@@H]4O)cc3)CC2)ccc1OC[C@@H]1CO[C@@](Cn2cncn2)(c2ccc(F)cc2F)C1,MIC,Mucor circinelloides [3],2 µg/mL
same,MIC,Rhizomucor pusillus [4],2 µg/mL
C[C@@H]1C[C@H]1/C=C/[C@@H]1C[C@H]1[C@@H]1C[C@H]1[C@@H]1C[C@H]1[C@@H]1C[C@H]1/C=C/C=C/C(=O)NC[C@H]1O[C@@H](N2CCC(=O)NC2=O)[C@H](O)[C@@H]1O,minimal effective concentration,Rhizopus delemar,0.016 µg/mL
same,minimal effective concentration,Rhizopus arrhizus [5],≤ 0.008 µg/mL
same,minimal effective concentration,Lichtheimia corymbifera [6],≤ 0.008 µg/mL
same,minimal effective concentration,Mucor circinelloides [7],0.016 µg/mL
same,minimal effective concentration,Mucor indicus,≤ 0.008 µg/mL
CCOC(=O)N1C/C(=C\c2ccc([N+](=O)[O-])cc2)C(=O)[C@@]2(C1)[C@H](c1ccc([N+](=O)[O-])cc1)CN(C)[C@]21C(=O)Nc2ccccc21,inhibition zone (IZ),[2],39.46 mm
CCOC(=O)N1C/C(=C\c2ccc(F)cc2)C(=O)[C@@]2(C1)[C@H](c1ccc(F)cc1)CN(C)[C@]21C(=O)Nc2ccccc21,inhibition zone (IZ),[2],39.46 mm
CCOC(=O)N1C/C(=C\c2ccc(F)c(F)c2)C(=O)[C@@]2(C1)[C@H](c1ccc(F)c(F)c1)CN(C)[C@]21C(=O)Nc2ccccc21,inhibition zone (IZ),[2],39.46 mm
CCOC(=O)N1C/C(=C\c2ccc(Cl)cc2)C(=O)[C@@]2(C1)[C@H](c1ccc(Cl)cc1)[C@H]1CCCN1[C@]21C(=O)Nc2ccccc21,inhibition zone (IZ),[2],39.46 mm
C[C@@H]1[C@H](O)[C@@H](C)/C=C/C=C/C=C/C=C/C=C/C=C/C=C/[C@H](O[C@@H]2O[C@H](C)[C@@H](O)[C@H](N)[C@@H]2O)C[C@@H]2O[C@](O)(C[C@@H](O)C[C@@H](O)[C@H](O)CC[C@@H](O)C[C@@H](O)CC(=O)O[C@H]1C)C[C@H](O)[C@H]2C(=O)O [AMPHOTERICIN B],inhibition zone (IZ),[2],22 mm
same,IC50,[1],14.3 µg/mL
same,MIC,[1],1.95 µg/mL
same,MIC,Rhizomucor pusillus [8],2 µg/mL
same,MIC90,Rhizomucor pusillus [8],1 µg/mL
same,MIC,Rhizomucor pusillus [9],1 µg/mL
same,MIC,Rhizopus arrhizus [10],2 µg/mL
CC(C)c1c(C(=O)Nc2ccccc2)c(-c2ccccc2)c(-c2ccc(F)cc2)n1CC[C@@H](O)C[C@@H](O)CC(=O)O [ATORVASTATIN],MIC,Rhizopus arrhizus [11],32 µg/mL
same,MIC,Rhizopus arrhizus [12],32 µg/mL
same,MIC,Rhizopus arrhizus [13],64 µg/mL
same,MIC,Rhizopus arrhizus [14],64 µg/mL
same,MIC,Rhizopus arrhizus [15],64 µg/mL
same,MIC,Rhizopus stolonifer,64 µg/mL
same,MIC,[16],32 µg/mL
same,MIC,Mycotypha africana,8 µg/mL
same,MIC,Mucor circinelloides [17],16 µg/mL
OC(Cn1cncn1)(Cn1cncn1)c1ccc(F)cc1F [FLUCONAZOLE],inhibition zone (IZ),[2],22 mm
Nc1c(-c2cc(Cc3ccc(COc4ccccn4)cc3)no2)ccc[n+]1COP(=O)([O-])O [FOSMANOGEPIX],MEC,Rhizopus arrhizus [18],0.25 µg/mL
CCC(C)n1ncn(-c2ccc(N3CCN(c4ccc(OCC5COC(Cn6cncn6)(c6ccc(Cl)cc6Cl)O5)cc4)CC3)cc2)c1=O (stereo not given) [ITRACONAZOLE],MIC,Absidia,0.03 µg/mL
same,MIC,Mucor circinelloides [3],> 8 µg/mL
CC[C@H](C)C(=O)O[C@H]1C[C@@H](C)C=C2C=C[C@H](C)[C@H](CC[C@@H](O)C[C@@H](O)CC(=O)O)[C@H]21 [LOVASTATIN ACID],MIC90,Rhizomucor pusillus [9],11 µg/mL
same,MIC90,Rhizomucor miehei,11 µg/mL
same,MIC90,Lichtheimia corymbifera [19],11 µg/mL
CC[C@@H]([C@H](C)O)n1ncn(-c2ccc(N3CCN(c4ccc(OC[C@@H]5CO[C@@](Cn6cncn6)(c6ccc(F)cc6F)C5)cc4)CC3)cc2)c1=O [POSACONAZOLE],MIC,Mucorales,1 µg/mL
same,MIC,Rhizomucor pusillus [4],> 8 µg/mL
CC(C)c1nc(N(C)S(C)(=O)=O)nc(-c2ccc(F)cc2)c1/C=C/[C@@H](O)C[C@@H](O)CC(=O)O [ROSUVASTATIN],MIC90,Rhizopus arrhizus [20],96 µg/mL
same,MIC90,Rhizomucor pusillus [9],11 µg/mL
same,MIC90,Rhizomucor miehei,11 µg/mL
same,MIC90,Lichtheimia corymbifera [19],33 µg/mL
same,MIC,Rhizopus stolonifer,64 µg/mL
same,MIC,[16],32 µg/mL
same,MIC,Mycotypha africana,8 µg/mL
same,MIC,Mucor circinelloides [17],32 µg/mL
CCC(C)(C)C(=O)O[C@H]1C[C@@H](C)C=C2C=C[C@H](C)[C@H](CC[C@@H]3C[C@@H](O)CC(=O)O3)[C@H]21 [SIMVASTATIN],MIC90,Rhizomucor pusillus [9],11 µg/mL
same,MIC90,Lichtheimia corymbifera [19],96 µg/mL
same,MIC,Rhizopus arrhizus [12],64 µg/mL
same,MIC,[16],8 µg/mL
CO[C@H]1C[C@@H]2CC[C@@H](C)[C@@](O)(O2)C(=O)C(=O)N2CCCC[C@H]2C(=O)O[C@H]([C@H](C)C[C@@H]2CC[C@@H](O)[C@H](OC)C2)CC(=O)[C@H](C)/C=C(\C)[C@@H](O)[C@@H](OC)C(=O)[C@H](C)C[C@H](C)/C=C/C=C/C=C/1C [SIROLIMUS],inhibition at 12.5 µg/mL,Rhizopus arrhizus [21],≤ 80%
same,inhibition at 100 µg/mL,Mucor circinelloides [22],≤ 80%
same,inhibition at 6.26 µg/mL,Phycomyces blakesleeanus,≤ 80%
CCC(C)(C)C(=O)O[C@H]1C[C@@H](C)C=C2C=C[C@H](C)[C@H](CC[C@@H](O)C[C@@H](O)CC(=O)O)[C@H]21 [TENIVASTATIN],MIC90,Rhizomucor pusillus [9],1.2 µg/mL
same,MIC90,Lichtheimia corymbifera [19],11 µg/mL
same,MIC90,[23],33 µg/mL
C[C@@H](c1ncncc1F)[C@](O)(Cn1cncn1)c1ccc(F)cc1F [VORICONAZOLE],MIC,Mucor circinelloides [3],> 8 µg/mL
same,MIC,Rhizomucor pusillus [4],> 8 µg/mL
